# Experimental data as given in patent US12303614B2, “Compositions and methods for improving mechanical properties of a tissue or for regenerating an injured or diseased tissue” (University of Rochester, priority 2019, dated 2025).
# Entries after “also recorded” stand apart in the source; their conditions may differ.
# Legend:
# HH43 chick embryos = assay: Gross development: anatomical staging and leg appearance of treated embryos; format: in vivo
# Description: (§1) Fertilized white leghorn eggs (University of Connecticut poultry farm) were incubated at 37° C. under high humidity. For developmental characterizations, eggs were not injected. For other experiments, a single dose of sterile saline (control), 0.2% DMB (rigid paralysis), 0.2% pancuronium bromide (PB) (flaccid paralysis), 0.2% 4-AP (hypermotility), or 0.2% 4-AP and 5 mg BAPN per gram of embryo dry mass (to simultaneously induce hypermotility and inhibition of LOX activity) was injected at the air sac end of an HH43 egg and incubated for another 48 h, as previously described (10). DMB dosage was based on previous studies that paralyzed the embryo without affecting gross development (3). […] At specific timepoints, chick embryos were sacrificed by decapitation and staged based on anatomical features (15). The calcaneal tendon was homogenized in TRIzol LS reagent, snap frozen for protein and enzyme assays, or embedded for cryosectioning.
# [1] = test system: HH43 chick embryo calcaneal tendons; assay: Fibrillar collagen content and organization by F-SHG two photon microscopy; format: in vivo; settings: HH43 chick embryos, 48 h
# Description: as §1
# (§2) Calcaneal tendons of staged embryos were cryoembedded as previously described (10) and cryosectioned at 50 μm thickness.
# Tendon cryosections were immersed in Ca^2+/Mg^2+-free phosphate buffered saline (PBS) to remove O.C.T. A 20× water objective imaged a 220×220 μm region in the center of tendon midsubstance in PBS. Collagen was characterized by F-SHG at 800 nm excitation, and signal was collected by a photomultiplier tube using a 405DF30 filter. Background was determined with laser off. Background was subtracted from each F-SHG image using MATLAB (MATHWORKS, MA) and then average pixel intensities of each image were calculated to assess collagen content per unit area.
# chick embryos [2] = settings: HH36 to HH44 chick embryos, for at least 24 h, previous studies (14); cited from earlier work
# chick embryos [3] = assay: Embryo movement frequency after injection; format: in vivo; settings: within 1 min of injection, lasted 48 h (data not shown)
# Description: as §1
# LOX activity = LOX activity assay of calcaneal tendons after in ovo treatment; format: in vivo, chick; settings: HH43 embryos treated in ovo, 48 h; for reduction of LOX activity levels of calcaneal tendons compared to saline controls: p<0.05
# Description: as §1
# Western blot to semi-quantitatively measure proLOX levels was performed with rabbit anti-proLOX antibody or rabbit anti-β-actin antibody (ABCAM, MA). ProLOX and β-actin levels were quantified by densitometry at ˜50 kDa and ˜40 kDa molecular bands, respectively. LOX activity of each sample was measured using a LOX activity assay kit (ABCAM, MA). Recombinant LOXL2 enzyme (R&D Systems, MN) was used as a positive control for each assay.
# [4] = test system: HH43 chick embryo calcaneal tendons; assay: Calcaneal tendon elastic modulus by force volume-AFM after in ovo treatment; format: in vivo; settings: HH43 chick embryos, 48 h; for calcaneal tendon elastic modulus relative to controls: single in ovo injection, vs saline
# Description: as §1, §2
# Force volume-AFM was used to characterize tendon elastic modulus using previously established methods (10). Briefly, tendon cryosections were immersed in PBS to remove O.C.T. A silicon nitride tip probe (˜20 nm radius) with a spring constant of 0.06 N/m (BRUKER, CA) was used on an MFP-3D AFM (ASYLUM RESEARCH, CA) to obtain force curves in a 64×64 2-dimensional array over a 10 μm×10 μm tissue region in the center of the tendon midsubstance with a 1.0 μm indentation trigger point. The sample was indented at 6 μm/s, at which tendon elastic properties were previously characterized with negligible viscous effects (10). Elastic modulus was calculated by fitting force displacement curves at each indentation to the Hertzian model using equations adapted from a previous study (10).
# [5] = test system: HH43 chick embryo calcaneal tendons; assay: Collagen crosslink density analysis (HP/collagen) after paralysis; format: in vivo; settings: HH43 chick embryos, injections at 0 h and 24 h, 48 h of paralysis
# Description: Briefly, HH43 chick embryos were either treated with saline (vehicle control), decamethonium bromide (DMB, THERMO FISHER), or pancuronium bromide (PB, THERMO FISHER). Treatments of DMB and PB were performed at 0 h and 24 h by injection through the air-pocket of each egg. After the 48 h of treatments, each embryo was sacrificed by decapitation, was staged, and the calcaneal tendons were dissected for collagen cross-link density analysis. For each biological sample (N=1), 5 tendons were pooled together (5 left calcaneal tendons from 5 chick embryos). In this experiment, collagen crosslink density analysis was performed for biological samples.
# [6] = treated at HH43, harvested after 48 h, compared with non-injected HH45
# [7] = treated at HH43 for 48 h, N ≥ 6, expected stage HH45
smiles,measurement,setting,value
"Nc1ccncc1 [4-AP, 4-aminopyridine]",gross appearance of legs at harvest,HH43 chick embryos; [6],appeared similar to non-injected HH45 legs
same,Stage (HH) of embryos at harvest (mean ± standard deviation (std)),HH43 chick embryos; [7],45 ± 0.4 HH
same,apparent collagen organization,[1],Neither treatment affected; also recorded: appeared normal
same,collagen content relative to controls,[1],Neither treatment affected
same,hypermotility induced by a single injection,chick embryos [2],up to 400%
same,increase of embryo movement frequency,chick embryos [3],200%
same,LOX activity levels in calcaneal tendons compared to controls,LOX activity,no effects
same,increase of calcaneal tendon modulus relative to controls,[4]; hypermotility,2 fold
same,calcaneal tendon elastic modulus relative to controls,[4],significantly upregulated; also recorded: higher
"N#CCCN [BAPN, β-aminopropionitrile]",gross appearance of legs at harvest,HH43 chick embryos; [6],appeared similar to non-injected HH45 legs
same,Stage (HH) of embryos at harvest (mean ± standard deviation (std)),HH43 chick embryos; [7],45 ± 0.5 HH
same,apparent collagen organization,[1],appeared normal
same,calcaneal tendon elastic modulus relative to controls,[4],reduced
"C[N+](C)(C)CCCCCCCCCC[N+](C)(C)C [DMB, decamethonium bromide]",Stage (HH) of embryos at harvest (mean ± standard deviation (std)),HH43 chick embryos; in vivo,45 ± 0.4 HH
same,gross appearance of legs at harvest,HH43 chick embryos; in vivo,hyperextended digits
same,apparent collagen organization,[1],Neither treatment affected
same,collagen content relative to controls,[1],Neither treatment affected
same,hydroxylysyl pyridinoline (HP)/collagen ratio compared to saline-treated tendons,[5],lower
same,LOX activity levels in calcaneal tendons compared to controls,LOX activity,significantly reduced
same,reduction of LOX activity levels of calcaneal tendons compared to saline controls,LOX activity,2 fold
same,reduction of calcaneal tendon modulus relative to controls,[4]; paralysis,2 fold
same,calcaneal tendon elastic modulus relative to controls,[4],significantly reduced
"CC(=O)O[C@H]1C[C@@H]2CC[C@@H]3[C@H](CC[C@@]4(C)[C@H]3C[C@H]([N+]3(C)CCCCC3)[C@@H]4OC(C)=O)[C@@]2(C)C[C@@H]1[N+]1(C)CCCCC1 [PB, pancuronium bromide]",hydroxylysyl pyridinoline (HP)/collagen ratio compared to saline-treated tendons,[5],lower
same,LOX activity levels in calcaneal tendons compared to controls,LOX activity,significantly lower
same,reduction of LOX activity levels of calcaneal tendons compared to saline controls,LOX activity,2 fold
